Entries after “also recorded” stand apart in the source; their conditions may differ.
Columns and labels:
[1] = test system: murine CD4+ CD25− T cells, CD8+ T cells, B cells; test: T and B cell activation, proliferation, cytokine production and Th1/Th2/iTreg differentiation; type: cell-based, mouse
Description: FIG. 2A, Left, is a graph showing dose response analyses performed on activated carboxyfluorescein succinimidyl ester (CFSE)-labeled CD4^+CD25^− T cells in the presence of DMSO, 40 nM MAZ1310, or increasing concentrations of halofuginone (HF) (1.25-40 nM). CFSE dilution and cell surface CD25 expression were determined 48 hours after activation. Intracellular cytokine production was determined on day 4 or 5 following restimulation with phorbol myristate acetate (PMA) and ionomycin. […] FIG. 2A, Right is a graph showing dose-response analyses of HF effects on CD8^+ T cell or B cell function. Cells were activated in the presence of DMSO, 40 nM MAZ1310, or increasing concentrations of HF (1.25-40 nM). CFSE dilution, cell surface CD25 expression, and intracellular cytokine production were determined as above 2-5 days after activation.
At approximately 10-fold higher concentrations (>20 nM), HF induced a general inhibition of T and B cell activation, proliferation, and effector function (FIG. 2A, 2B).
Purified CD4^+ CD25^− T cells were activated in vitro as previously described (Djuretic et al., Nat. Immunol. 8:145, 2007) using 0.3 μg/ml hamster anti-mouse CD3 (clone 145-2C11) (ATCC—Manassas, Va.) and 0.5 μg/ml hamster anti-mouse CD28 (BD Pharmingen—San Jose, Calif.). Activated cell cultures were differentiated using the following combinations of cytokines and antibodies: iTreg-recombinant human TGFβ1 (3 ng/ml—R&D systems, Minneapolis, Minn.), Th17-TGFβ1 (3 ng/ml) plus recombinant mouse IL-6 (30 ng/ml—R&D systems). Th1 and Th2 differentiation was performed as previously described (Djuretic et al., Nat. Immunol. 8:145, 2007). Human IL-2 supernatant (National Cancer Institute) was used in culture at 0.01 U/ml and was added at 48 hours-post activation when T cells were split into tissue culture wells lacking CD3 and CD28 antibodies, with the exception of Th17 cultures that were maintained in the absence of exogenous IL-2. CD8^+ T cells were activated with 1 μg/ml anti-CD3 and 1 μg/ml anti-CD28 and were expanded in 0.1 U/ml IL-2 until day 6 post activation. CD43-depleted B cells were activated in vitro by culturing with 25 μg/ml LPS (Sigma—St. Louis, Mo.) for 3-4 days in the presence or absence of TGFβ. All reagents (see below) were added at the time of T cell activation and again at 48 hours post activation unless indicated otherwise. For some experiments, purified CD4^+ CD25^− T cells, CD8^+ T cells or B cells were labeled with 1 μM CFSE (Invitrogen) prior to activation in accordance with manufacturer's instructions. Human T cell activation was performed by plating purified monocytes in a 96-well flat bottom plate at a concentration of 2×10^4 cells per well in complete medium overnight. 10^5 purified human memory T cells were added to monocyte cultures in the presence of soluble anti-CD3/anti-CD28 beads (Dynabeads, Invitrogen). T cells were expanded in the presence HF or MAZ1310 for up to 6 days.
Cytokines secreted into media supernatant were measured using the mouse Th1/Th2 cytometric bead array (CBA—BD Pharmingen) in accordance with manufacturers instructions. Briefly, CD4+ CD25− T cells were activated in anti-CD3/anti-CD28-coated tissue culture wells (see above) and supernatants were collected at the indicated times.
For detection of intracellular cytokines in murine cells, cultured T or B cells were stimulated with 10 nM PMA (Sigma) and […] (Sigma) for 4-5 hours in the presence of […] brefeldin A (Sigma). Stimulated cells were harvested, washed with PBS and fixed with PBS plus 4% paraformaldehyde at room temperature for 20 minutes. Cells were then washed with PBS, permeabilized with PBS supplemented with 1% BSA and 0.5% saponin (Sigma) at room temperature for 10 minutes before cytokine-specific antibodies were added and incubated with cells for an additional 20 minutes at room temperature. […]

[2] = test system: adjuvant-driven EAE in wild-type B6 mice; test: Adjuvant-driven EAE (MOG33-55 immunization); type: in vivo, mouse
From the text: The ability of systemic HF treatment to block IL-17 expression and associated autoimmune inflammation in vivo was examined using two distinct models of experimental autoimmune encephalomyelitis (EAE). […] The second model, a passive model of EAE induction, is initiated by the transfer of myelin proteolipid protein (PLP)-reactive T cells into lymphopenic hosts.
Adjuvant-driven EAE was induced in 8 week-old wild-type B6 mice purchased from Charles River laboratories (Kingston, N.Y.) by subcutaneous injection of […] peptide emulsified in Incomplete Freund's Adjuvant (IFA) plus 5 mg/ml heat-killed M. tuburculosis (BD Biosciences) in both dorsal flanks as described in Veldhoen et al. (Nat. Immunol. 7(11):1151-1156, 2006).
Mice were injected daily with HF (2 μg/mouse) or vehicle control (DMSO) i.p. Clinical signs of EAE were assessed according to the following score: 0, no signs of disease; 1, flaccid tail; 2, weak gait/hind limb paresis; 3, hind limb paralysis; 4, tetraplegia; 5, moribund. Cytokine production during EAE was determined either in peripheral T cells isolated from spleen or lymph nodes of mice prior to disease onset (day 6-10) or in mononuclear cells isolated from the brain and spinal cords of mice with severe disease (clinical score ≧2) between days 15-20. Briefly, splenocytes were stained for intracellular cytokines following erythrocyte lysis with ammonium chloride buffer. T cells were isolated from brain and spinal cords of mice with active EAE following perfusion with cold PBS. Minced CNS tissue was digested with liberase C1 (0.33 mg/ml, Roche Diagnostics) or collagenase D (10 mg/ml, Roche Diagnostics) at 37° C. for 30-45 minutes. Cell suspensions were passed through 70 μm cell strainers (VWR) and fractionated by 70%/30% Percoll gradient centrifugation. Mononuclear cells were collected from the interphase, washed and used for intracellular cytokine analysis.

[3] = low concentrations of HF (1-10 nM)
[4] = 2 μg HF daily, ˜0.1 mg/kg, i.p.

Compound | Th1 and Th2 differentiation ([1]; low concentrations of tunicamycin) | concentration inducing general inhibition of T and B cell activation, proliferation, and effector function [1] [nM] | CD25 upregulation [1, 3] | T cell proliferation [1, 3] | production of IL-2, TNF, or IFNγ [1, 3] | Th1, Th2 or iTreg differentiation (IFNγ, IL-4, or Foxp3 expression) ([1]; low-dose HF) | CD4+ T cell infiltrates into the CNS ([2]; 2 μg HF daily i.p.) | IFNγ expression in the same T cell populations ([2]; 2 μg HF daily i.p.) | T cell-derived IL-17 expression in lymph nodes and CNS tissue ([2]; 2 μg HF daily i.p.) | frequency of disease onset [2, 4] | severity of adjuvant-driven EAE disease [2, 4] | clinical score of mice analysed ([2]; 17 days after immunization with MOG) | clinical score of mice analysed ([2]; day 18)
tunicamycin | preferentially impaired Th1 and Th2 differentiation |  |  |  |  |  |  |  |  |  |  |  | 
O=C(CC1NCCCC1O)Cn1cnc2cc(Br)c(Cl)cc2c1=O (racemic) [HF, halofuginone] |  | > 20 | did not affect | did not affect | did not affect | failed to modulate | overall reduction | did not affect IFNγ expression; also recorded: had no effect on the number of IFNγ T-cells | reduction; also recorded: selectively reduced the number of IL-17 expressing T cells | significantly reduced | significantly reduced | 0 | 0

From patent publication US20120058133A1, “INHIBITION OF TRNA SYNTHETASES AND THERAPEUTIC APPLICATIONS THEREOF” (President and Fellows of Harvard College, priority 2009, published 2012)
